Experimental findings from EP0821955B1 (priority 1996, dated 1998) are described below.

By Ki is commonly meant a dissociation constant, usually derived from enzyme kinetics or from competition with a known ligand.

Test [1] deals with muscarinic cholinergic receptors. The test can be described thus: ^3H-oxotremorine-M binding study. The settings on record: inhibition of the binding of ^3H-oxotremorine-M; read-out: inhibition constant (Ki).
The next test deals with m4 receptors (Homo sapiens, UniProt P08173). Format: cell-based. The settings on record: Chinese Hamster Ovary (CHO) m4 cells treated with pertussis toxin.
Chain of m4 receptors (P08173 whole entry): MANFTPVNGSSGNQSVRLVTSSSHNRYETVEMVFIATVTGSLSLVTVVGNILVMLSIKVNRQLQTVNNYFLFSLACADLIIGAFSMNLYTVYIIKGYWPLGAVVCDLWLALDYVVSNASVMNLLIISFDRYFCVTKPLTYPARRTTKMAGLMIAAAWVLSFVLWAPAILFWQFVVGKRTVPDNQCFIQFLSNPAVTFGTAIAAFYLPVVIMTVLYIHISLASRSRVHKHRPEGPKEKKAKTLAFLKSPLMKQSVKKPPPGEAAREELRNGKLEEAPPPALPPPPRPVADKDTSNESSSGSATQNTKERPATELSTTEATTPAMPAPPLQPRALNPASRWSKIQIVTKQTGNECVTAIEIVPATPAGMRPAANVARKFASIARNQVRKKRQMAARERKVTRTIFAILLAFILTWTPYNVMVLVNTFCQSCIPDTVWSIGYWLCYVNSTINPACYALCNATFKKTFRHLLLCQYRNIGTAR

Turning to `CCCCCCOc1nsnc1C1=CCCN(C)C1` [xanomeline, 3-(4-hexyloxy-1,2,5-thiadiazol-3-yl)-1,2,5,6-tetrahydro-1-methylpyridine], the inhibition constant Ki in test [1] amounted to 2 nM. For the same compound, the “formation of cAMP” value on m4 receptors was “efficaciously and potently stimulated the formation of cAMP”.
